Data published in ChEMBL document CHEMBL5226375, “Synthesis and Comprehensive in Vivo Activity Profiling of Olean-12-en-28-ol, 3β-Pentacosanoate in Experimental Autoimmune Encephalomyelitis: A Natural Remyelinating and Anti-Inflammatory Agent” (J Nat Prod, 2023).
Activity calls are given as the source filed them. No cut-off for these calls is given here.

How the values were obtained:
[1] = Stability of the compound in THF/phosphate buffer at pH 7.4 incubated for 2 hrs under stirring conditions by 1H-NMR analysis; format: physicochemical; conditions: pH 7.4, 2 h
[2] = tested on: Mus musculus; test: Anti-inflammatory activity against MOG35-55-induced experimental autoimmune encephalomyelitis C57BL/6 mouse model assessed as reduction in serum monokines level by measuring reduction in IL-1B level at 600 mg/kg/day, ig for 14 days starting from 12th day of immunization by ELISA; format: functional, organism-based; conditions: time 14.0 day
[3] = tested on: Mus musculus; test: Anti-inflammatory activity against MOG35-55-induced experimental autoimmune encephalomyelitis C57BL/6 mouse model assessed as fold change in CCL5 gene expression in brain at 300 mg/kg/day, ig for 14 days starting from 12th day of immunization by RT-qPCR analysis relative to control; format: functional; conditions: time 14 day
[4] = tested on: Mus musculus; test: Anti-inflammatory activity against MOG35-55-induced experimental autoimmune encephalomyelitis C57BL/6 mouse model assessed as methylation of CpG sites of TGFB1 gene promoter in brain at 600 mg/kg, ig for 14 days starting from 12th day of immunization by PCR analysis (reference value: 18.3 +/-4%); format: functional; conditions: time 14 day
[5] = tested on: Mus musculus; test: Anti-inflammatory activity against MOG35-55-induced experimental autoimmune encephalomyelitis C57BL/6 mouse model assessed as fold change in MMP9 gene expression in brain at 300 mg/kg/day, ig for 14 days starting from 12th day of immunization by RT-qPCR analysis relative to control; format: functional; conditions: time 14 day
[6] = tested on: Mus musculus; test: Anti-inflammatory activity against MOG35-55-induced experimental autoimmune encephalomyelitis C57BL/6 mouse model assessed as fold change in STAT3 gene expression in brain at 300 mg/kg/day, ig for 14 days starting from 12th day of immunization by RT-qPCR analysis relative to control; format: functional; conditions: time 14 day
[7] = tested on: Mus musculus; test: Anti-inflammatory activity against MOG35-55-induced experimental autoimmune encephalomyelitis C57BL/6 mouse model assessed as fold change in CXCL10 gene expression in brain at 600 mg/kg/day, ig for 14 days starting from 12th day of immunization by RT-qPCR analysis relative to control; format: functional; conditions: time 14 day
[8] = tested on: Mus musculus; test: Anti-inflammatory activity against MOG35-55-induced experimental autoimmune encephalomyelitis C57BL/6 mouse model assessed as reduction in TNF-alpha protein expression in brain at 300 to 600 mg/kg/day, ig for 14 days starting from 12th day of immunization by western blot analysis; format: functional, organism-based; conditions: dose 300-600 mg/kg/day, time 14.0 day
[9] = tested on: Mus musculus; test: Anti-inflammatory activity against MOG35-55-induced experimental autoimmune encephalomyelitis C57BL/6 mouse model assessed as reduction in serum chemokines level by measuring reduction in CCL5 level at 600 mg/kg/day, ig for 14 days starting from 12th day of immunization by ELISA; format: functional, organism-based; conditions: time 14.0 day
[10] = tested on: Mus musculus; test: Anti-inflammatory activity against MOG35-55-induced experimental autoimmune encephalomyelitis C57BL/6 mouse model assessed as increase in serum IL-10 level at 600 mg/kg/day, ig for 14 days starting from 12th day of immunization by ELISA; format: functional, organism-based; conditions: time 14.0 day
[11] = tested on: Mus musculus; test: Anti-inflammatory activity against MOG35-55-induced experimental autoimmune encephalomyelitis C57BL/6 mouse model assessed as fold change in IL6 gene expression in brain at 300 mg/kg/day, ig for 14 days starting from 12th day of immunization by RT-qPCR analysis relative to control; format: functional; conditions: time 14 day
[12] = Stability of the compound in THF/phosphate buffer at pH 6.5 incubated for 2 hrs under stirring conditions by 1H-NMR analysis; format: physicochemical; conditions: pH 6.5, 2 h
[13] = Stability of the compound in THF/phosphate buffer at pH 2.5 incubated for 2 hrs under stirring conditions by 1H-NMR analysis; format: physicochemical; conditions: pH 2.5, 2 h
[14] = tested on: Mus musculus; test: Anti-inflammatory activity against MOG35-55-induced experimental autoimmune encephalomyelitis C57BL/6 mouse model assessed as reduction in EAE symptoms by measuring neurological regeneration and behavioral impotence at 600 mg/kg/day, ig for 14 days starting from 12th day of immunization; format: functional, organism-based; conditions: time 14.0 day
[15] = tested on: Mus musculus; test: Anti-inflammatory activity against MOG35-55-induced experimental autoimmune encephalomyelitis C57BL/6 mouse model assessed as fold change in C1S gene expression in brain at 600 mg/kg/day, ig for 14 days starting from 12th day of immunization by RT-qPCR analysis relative to control; format: functional; conditions: time 14 day
[16] = tested on: Mus musculus; test: Anti-inflammatory activity against MOG35-55-induced experimental autoimmune encephalomyelitis C57BL/6 mouse model assessed as fold change in CD4 gene expression in brain at 300 mg/kg/day, ig for 14 days starting from 12th day of immunization by RT-qPCR analysis relative to control; format: functional; conditions: time 14 day
[17] = tested on: Mus musculus; test: Anti-inflammatory activity against MOG35-55-induced experimental autoimmune encephalomyelitis C57BL/6 mouse model assessed as fold change in MBP gene expression in brain at 600 mg/kg/day, ig for 14 days starting from 12th day of immunization by RT-qPCR analysis relative to control; format: functional; conditions: time 14 day
[18] = tested on: Mus musculus; test: Anti-inflammatory activity against MOG35-55-induced experimental autoimmune encephalomyelitis C57BL/6 mouse model assessed as reduction in serum chemokines level by measuring reduction in CXCL1 level at 0.3 mg/kg/day, ig for 14 days starting from 12th day of immunization by ELISA; format: functional, organism-based; conditions: time 14.0 day
[19] = tested on: Mus musculus; test: Anti-inflammatory activity against MOG35-55-induced experimental autoimmune encephalomyelitis C57BL/6 mouse model assessed as fold change in IL6 gene expression in brain at 0.15 mg/kg/day, ig for 14 days starting from 12th day of immunization by RT-qPCR analysis relative to control; format: functional; conditions: time 14 day
[20] = tested on: Mus musculus; test: Anti-inflammatory activity against MOG35-55-induced experimental autoimmune encephalomyelitis C57BL/6 mouse model assessed as methylation of CpG sites of […] gene promoter in brain at […], ig for 14 days starting from 12th day of immunization by PCR analysis (reference value: 13.1 +/-8%); format: functional; conditions: time 14 day
[21] = tested on: Mus musculus; test: Anti-inflammatory activity against MOG35-55-induced experimental autoimmune encephalomyelitis C57BL/6 mouse model assessed as fold change in MMP9 gene expression in brain at 0.15 mg/kg/day, ig for 14 days starting from 12th day of immunization by RT-qPCR analysis relative to control; format: functional; conditions: time 14 day
[22] = tested on: Mus musculus; test: Anti-inflammatory activity against MOG35-55-induced experimental autoimmune encephalomyelitis C57BL/6 mouse model assessed as fold change in CCL5 gene expression in brain at 0.3 mg/kg/day, ig for 14 days starting from 12th day of immunization by RT-qPCR analysis relative to control; format: functional; conditions: time 14 day
[23] = tested on: Mus musculus; test: Anti-inflammatory activity against MOG35-55-induced experimental autoimmune encephalomyelitis C57BL/6 mouse model assessed as methylation of CpG sites of IL18 gene promoter in brain at […], ig for 14 days starting from 12th day of immunization by PCR analysis (reference value: 29.2 +/-8%); format: functional; conditions: time 14 day
[24] = tested on: Mus musculus; test: Anti-inflammatory activity against MOG35-55-induced experimental autoimmune encephalomyelitis C57BL/6 mouse model assessed as fold change in BCL2 gene expression in brain at 0.3 mg/kg/day, ig for 14 days starting from 12th day of immunization by RT-qPCR analysis relative to control; format: functional; conditions: time 14 day

For `CCCCCCCCCCCCCCCCCCCCCCCCC(=O)O[C@H]1CC[C@]2(C)[C@H]3CC=C4[C@@H]5CC(C)(C)CC[C@]5(CO)CC[C@@]4(C)[C@]3(C)CC[C@H]2C1(C)C`, the Stability [1] was “Stable”, the Activity [2] was “Active” and the “fold change (FC)” value [3] was 2.69. The Activity [4] was 39.8%, the “fold change (FC)” value [5] was 1.42 and the “fold change (FC)” value [6] was 1.54. For the same compound, the “fold change (FC)” value [7] was 1.93, the Activity [8] was “Active” and the Activity [9] was “Active”. The Activity [10] was “Active”, the “fold change (FC)” value [11] was 3.18 and the Stability [12] was “Stable”. The Stability [13] was “Stable”, the Activity [14] was “Active” and the “fold change (FC)” value [15] was 1.98. For the same compound, the “fold change (FC)” value [16] was 2.55 and the “fold change (FC)” value [17] was 3.8.

For `CCCCCCCCc1ccc(CCC(N)(CO)CO)cc1` [FINGOLIMOD], the Activity [18] was “Active”, the “fold change (FC)” value [19] was 4.34 and the Activity [20] was 19%. For the same compound, the “fold change (FC)” value [21] was 2.43, the “fold change (FC)” value [22] was -1.06 and the Activity [23] was 29.5%. For the same compound, the “fold change (FC)” value [24] was 2.12.
